Test results taken from article PMC10388311, “Innovative Strategy toward Mutant CFTR Rescue in Cystic Fibrosis: Design and Synthesis of Thiadiazole Inhibitors of the E3 Ligase RNF5” (Journal of Medicinal Chemistry, 2023).
In brackets after ≈: the same amount, converted by molar mass. Entries after “also recorded” stand apart in the source; their conditions may differ. Where two headings read alike, the source gives them in different places.

What was measured:
[1] = Solubility and aggregation in PBS buffer by NMR (SPAM filter, 1H 1D and WaterLOGSY); format: physicochemical; settings: for solubility and aggregation in PBS (in words): NMR; for solubility at 20 µM / solubility at 50 µM / solubility at 100 µM / aggregation in PBS buffer by NMR / solubility: PBS pH 7.5, 1 μM ZnCl2, 1 mM DTT, 10% D2O, 1% DMSO-d6; for solubility at 100 µM: theoretical concentration 100 μM; for aggregation in PBS buffer by NMR: WaterLOGSY
Source text: Under these circumstances, it was decided to explore the solubility of all the synthetized compounds, regardless of their biological activities, to find a suitable candidate for the validation of our working hypothesis, i.e., that the compounds exert their activities by directly binding to RNF5. For that, we first calculated the predicted octanol/water partition coefficient (log Po/w) and the predicted aqueous solubility (log S) of all the analogues by QikProp (Schrödinger Release 2022-1: QikProp, Schrödinger, LLC, New York, NY, 2021, Table S1). […] To shrink down the number of compounds for solubility experiments, just the ones that had −2.0 < log Po/w < 6 and −6.5 < log S <0.5 values were selected. Among them, the PBS solubility was determined for five representative analogues: (i) 12 and 29 bearing different substituents on the benzyl group A; (ii) 34 and 40 showing the replacement of rings B and C with pyridine-4-yl moieties; (iii) 42 in which the N-phenylbenzamidine portion was replaced with a pyridine-2-yl moiety (Table 1).
All the NMR experiments were recorded at 298 K using a 5 mm CryoProbe QCI ^1H/^19F–^13C/^15N–D quadruple resonance, a shielded z-gradient coil, and an automatic sample changer SampleJet NMR system with temperature control. The solubility of the compounds were evaluated by ^1H 1D experiments and aggregation by WaterLOGSY, testing the compounds in buffer PBS pH 7,5, 1 μM ZnCl2, 1 mM DTT, 10% D2O (for the lock signal), and 1% DMSO-d6 at the theoretical concentrations of 20, 50, and 100 μM in the presence of 200 μM 4-trifluoromethyl benzoic acid (internal reference). For all samples, a 1D ^1H NMR experiment was recorded, the water suppression was obtained using the standard NOESY (nuclear Overhauser effect spectroscopy) preset Bruker pulse sequence, with 64k data points, a spectral width (sw) of 30 ppm, 64 scans, acquisition time (aq) of 1.835 s, a relaxation delay (d1) of 4 s, and a mixing time of 10 ms. […] The data were multiplied by an exponential window function with 1 Hz line broadening prior to Fourier transformation. For NMR binding experiments, the compounds were tested at 50 μM in buffer PBS pH 7.5, 1 μM ZnCl2, 1 mM DTT, 10% D2O (for the lock signal), and 1% DMSO-d6 in the absence and in the presence of 3 μM RNF5. WaterLOGSY experiments were recorded with the same parameters used in solubility assays, but with a higher number of scans (512); STD experiments were recorded with 128 scans, with two on (0.7 and 1 ppm) and one off (−50 ppm) resonance spectra, a Gaussian-shaped train pulse of 50 ms each was employed, with a total saturation time of the protein envelope of 5, 3, 2, 1.5, 1, or 0.5 s. A T1ρ filter of 2 ms was employed in STD experiments to eliminate the background signals from the protein. The STD spectrum was obtained by subtraction of the on-resonance spectrum from the off-resonance spectrum. Subtraction was performed by phase cycling to minimize artifacts arising from magnet and temperature instabilities.

[2] = target: F508del-CFTR in CFBE41o– cells (Homo sapiens, UniProt Q99942); experiment: HS-YFP microfluorimetric assay of F508del-CFTR rescue (corrector activity); format: cell-based; settings: for F508del-CFTR corrector activity compared with inh-2 (CFTR activity, primary screen): CFBE41o– cells co-expressing F508del-CFTR and HS-YFP, 24 h treatment, Figure 5; for improvement of the rescue elicited by the double combination VX-661 + VX-445 / mutant CFTR activity upon co-treatment with VX-809 or VX-445: RNF5 inhibitor 5 μM; for improvement of the rescue elicited by the double combination VX-661 + VX-445: VX-661 + VX-445 10 μM + 3 μM; for mutant CFTR activity upon co-treatment with VX-809 or VX-445: VX-809 3 μM, VX-445 3 μM
Chain of F508del-CFTR in CFBE41o– cells (Q99942 2-180): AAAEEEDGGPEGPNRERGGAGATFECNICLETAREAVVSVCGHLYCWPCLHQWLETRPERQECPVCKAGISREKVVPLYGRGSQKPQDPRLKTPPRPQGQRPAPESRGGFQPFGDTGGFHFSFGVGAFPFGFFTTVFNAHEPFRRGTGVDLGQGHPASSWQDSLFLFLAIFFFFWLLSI
Chain of F508del-CFTR in CFBE41o– cells (P13569 with tags, fused parts or gaps DEL508-508 partner): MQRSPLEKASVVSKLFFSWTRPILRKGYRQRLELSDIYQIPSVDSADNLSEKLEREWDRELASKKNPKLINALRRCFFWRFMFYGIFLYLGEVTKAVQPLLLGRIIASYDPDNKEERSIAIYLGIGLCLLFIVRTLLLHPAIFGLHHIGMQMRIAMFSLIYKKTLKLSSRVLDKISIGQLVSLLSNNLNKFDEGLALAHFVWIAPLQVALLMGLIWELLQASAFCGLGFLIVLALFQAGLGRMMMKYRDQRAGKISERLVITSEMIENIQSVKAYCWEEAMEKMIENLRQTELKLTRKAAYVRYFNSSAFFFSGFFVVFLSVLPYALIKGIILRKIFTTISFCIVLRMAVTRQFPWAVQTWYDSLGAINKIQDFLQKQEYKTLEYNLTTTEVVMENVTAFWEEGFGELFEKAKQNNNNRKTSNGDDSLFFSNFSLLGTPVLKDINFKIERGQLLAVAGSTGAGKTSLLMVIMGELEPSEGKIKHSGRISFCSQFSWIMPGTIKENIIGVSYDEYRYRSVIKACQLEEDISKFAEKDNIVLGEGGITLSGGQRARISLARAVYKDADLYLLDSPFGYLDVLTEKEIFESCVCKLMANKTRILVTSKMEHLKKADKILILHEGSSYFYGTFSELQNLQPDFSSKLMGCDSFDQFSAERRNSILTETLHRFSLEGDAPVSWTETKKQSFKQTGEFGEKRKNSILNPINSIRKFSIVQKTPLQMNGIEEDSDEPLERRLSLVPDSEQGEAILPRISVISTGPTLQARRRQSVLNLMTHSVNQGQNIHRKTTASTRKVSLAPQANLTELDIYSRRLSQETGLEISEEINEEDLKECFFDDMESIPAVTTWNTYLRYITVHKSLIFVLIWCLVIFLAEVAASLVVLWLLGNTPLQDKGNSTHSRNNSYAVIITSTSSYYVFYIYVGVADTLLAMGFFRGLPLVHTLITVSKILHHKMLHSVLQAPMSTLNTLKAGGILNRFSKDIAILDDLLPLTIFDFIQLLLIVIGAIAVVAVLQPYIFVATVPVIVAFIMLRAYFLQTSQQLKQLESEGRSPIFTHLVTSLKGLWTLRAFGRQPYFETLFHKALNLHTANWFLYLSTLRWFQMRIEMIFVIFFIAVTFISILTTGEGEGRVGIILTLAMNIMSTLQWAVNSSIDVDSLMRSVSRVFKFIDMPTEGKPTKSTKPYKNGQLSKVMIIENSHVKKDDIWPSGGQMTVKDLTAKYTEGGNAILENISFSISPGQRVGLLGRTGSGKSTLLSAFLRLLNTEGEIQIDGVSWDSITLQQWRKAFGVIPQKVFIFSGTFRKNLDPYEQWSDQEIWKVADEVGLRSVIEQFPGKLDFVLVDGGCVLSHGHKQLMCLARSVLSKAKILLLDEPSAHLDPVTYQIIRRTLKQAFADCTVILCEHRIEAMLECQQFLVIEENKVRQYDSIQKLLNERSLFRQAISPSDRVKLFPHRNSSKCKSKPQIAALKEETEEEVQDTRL
Outline: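 CFBE41o– cells stably co-expressing F508del-CFTR and HS-YFP were treated with compounds 24 h after seeding; VX-809 (1 μM) served as positive control. F508del-CFTR was stimulated with forskolin (20 μM) plus VX-770 (1 μM) for 25 min before iodide injection. I– influx rate was taken as initial slope (dF/dt) from an exponential fit of YFP quenching.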

[3] = PBS buffer, aqueous buffer, kinetic from dmso stock, theoretical concentration 20 μM
[4] = PBS buffer, aqueous buffer, kinetic from dmso stock, theoretical concentration 50 μM
[5] = PBS buffer, aqueous buffer, kinetic from dmso stock
[6] = PBS buffer, aqueous buffer, kinetic from dmso stock, theoretical concentration 20 μM, read-out: solubility in PBS buffer by NMR, 20 μM
[7] = theoretical concentration 50 μM

| Compound | solubility and aggregation in PBS (in words) ([1]; PBS buffer) | solubility at 20 µM [1, 3] [µM] | solubility at 50 µM [1, 4] [µM] | solubility at 100 µM [1, 5] [µM] | aggregation in PBS buffer by NMR [1] | F508del-CFTR corrector activity compared with inh-2 (CFTR activity, primary screen) [2] | solubility [1, 6] [µM] | solubility at 50 µM [1, 7] [µM] | solubility at 100 µM [1] [µM] | F508del-CFTR activity in cells transfected with NT or RNF5 siRNA ([2]; CFBE41o– cells, 16 5 μM alone or combined with VX-661 + VX-445 (10 μM + 3 μM), 24 h) | improvement of the rescue elicited by the double combination VX-661 + VX-445 ([2]; CFBE41o– cells, 24 h) | mutant CFTR activity upon co-treatment with VX-809 or VX-445 ([2]; CFBE41o– cells, 24 h) | solubility ([1]; PBS buffer, aqueous buffer, kinetic from dmso stock, theoretical concentration 50 μM, read-out: solubility in PBS buffer by NMR, 50 μM) [µM] |
| --- | --- | --- | --- | --- | --- | --- | --- | --- | --- | --- | --- | --- | --- |
| Cc1ns/c(=N\c2ccccn2)n1Cc1ccccc1 [Compound 42, (Z)-4-Benzyl-3-methyl-N-(pyridin-2-yl)-1,2,4-thiadiazol-5(4H)-imine] | no aggregation and solubility suitable for in vitro/biophysical binding experiments | 20 (≈ 5.65 µg/mL) | 40 (≈ 11.3 µg/mL) | 5 (≈ 1.41 µg/mL) | no | inactive compounds; also recorded: almost inactive as CFTR correctors |  |  |  |  |  |  |  |
| COc1cccc(Cn2c(C)ns/c2=N\C(=N\c2ccccc2)c2ccccc2)c1 [Compound 16, (E)-N-((Z)-4-(3-Methoxybenzyl)-3-methyl-1,2,4-thiadiazol-5(4H)-ylidene)-N′-phenylbenzimidamide] |  |  |  |  | no | increased activity; also recorded: greater F508del-CFTR rescue than inh-2 | < 5 | <5 | <5 | increased the F508del-CFTR activity only in cells transfected with NT siRNA, but not in those transfected with RNF5 siRNA | able to further improve the rescue | significantly increased mutant CFTR activity |  |
| Cc1ns/c(=N\C(=N\c2ccccc2)c2ccccc2)n1Cc1ccccc1 [inh-2, reference compound] |  |  |  |  | no |  | < 5 | <5 | <5 |  | only analogue 16 was able to further improve the rescue | significantly increased mutant CFTR activity |  |
| Cc1ns/c(=N\C(=N\c2ccccc2)c2ccccc2)n1Cc1ccc(C(=O)O)cc1 [Compound 12, 4-(((Z)-3-Methyl-5-(((E)-phenyl(phenylimino)methyl)imino)-1,2,4-thiadiazol-4(5H)-yl)methyl)benzoic Acid] | no aggregation and solubility suitable for in vitro/biophysical binding experiments | 20 (≈ 8.57 µg/mL) | 50 (≈ 21.4 µg/mL) | 100 (≈ 42.9 µg/mL) | no | reduced potency; also recorded: lower F508del-CFTR activity compared to inh-2 |  |  |  |  |  |  |  |
| Cc1ns/c(=N\C(=N\c2ccncc2)c2ccccc2)n1Cc1ccccc1 [Compound 40, (E)-N-((Z)-4-Benzyl-3-methyl-1,2,4-thiadiazol-5(4H)-ylidene)-N′-(pyridin-4-yl)benzimidamide] | no aggregation and solubility suitable for in vitro/biophysical binding experiments | 20 (≈ 7.71 µg/mL) |  |  | no | inactive analogs; also recorded: almost inactive as CFTR correctors |  |  |  |  |  |  | 30 (≈ 11.6 µg/mL) |
